Where two headings read alike, the source gives them in different places.
Columns and labels:
Format in all cases: cell-based
[1] = system: spleen cells (C57BL/6 responder, irradiated Balb/C stimulator); test: Mixed lymphocyte reaction (MLR): inhibition of responder spleen cell proliferation; settings: Mus musculus, 96 h, four days incubation
Experimental: Inhibition of cell proliferation in the mixed lymphocyte reaction (MLR) (Bradley, 1980; Mishell, 1980) is a measure of in vivo immunosuppression. Spleen cells from female C57BL/6 mice, the "responder" cells, were prepared and co-cultured alone or in the presence of varying concentrations of the test compounds, with irradiated spleen cells prepared from female Balb/C mice, the "stimulator" cells. Prior irradiation of the stimulator cells rendered them unable to proliferate. A sample of the responder cells was also irradiated for use as a control. The non-irradiated responder cells proliferate in the presence of the allogenic stimulator cells. After a 78-hour incubation, tritiated thymidine was added to the mixed cell cultures, and incorporation of the labeled nucleotide into DNA was measured as an index of cell proliferation. […]
In the assay, 4×10^5 cells of R were cocultured with 4×10^5 cells of Sx in 200 μl of medium in round bottom 96 well tissue culture plates. […] The spontaneous proliferation of R was also measured.
The culture plates were incubated at 37° C. in a 5% CO2 incubator for four days. […] Cells were then harvested and counted. […] Sample cpm was calculated as (R+Sx+sample)cpm-(R+Rx +sample)cpm; control cpm was calculated as (R+Sx)cpm-(R+Rx)cpm. Percent suppression of MLR activity was calculated as (1-sample cpm/control cpm)×100. […]

[2] = Cytotoxicity by MTT assay, reported with the IL-1 assay (Table I); settings: mouse, thymocytes, cytotoxic when toxicity greater than 25%
Experimental: (§1) Potential cytotoxicity of the test samples was assessed by the measurement of their effect on the reduction of MTT (3-[4,5-Dimethylthiazole-2-yl]-2,5-diphenyltetrazolium bromide) by cultured cells. MTT, a yellow-colored compound, is reduced by mitochondrial enzymes to form the purple crystalline reduction product formazane, providing an index of cellular respiration on viable cells as well as a sensitive assay for cytotoxicity (Mossmann, 1983).
(§2) The cytotoxicity was assessed in cultured human PBMC and mouse thymocytes. A stock solution of MTT (Sigma) at 5 mg/ml in phosphate buffered saline, pH 7.4, was prepared and stored in the dark at 4° C. PBMCs or thymocytes were cultured with various concentrations of test samples in flatbottom 96-well tissue culture plates (Costar) under the same conditions as those described above, but the stimulants (X-35 or IL-1+PHA) were replaced by appropriate medium. Untreated cells with medium alone and without the test samples were used as controls. After incubation for 21 hours, 25 μl of MTT solution was added to each well. After an additional three hours of incubation, the experiment was terminated by addition of a solution of 10% sodium dodecyl sulfate in 0.01N HCl. Following overnight incubation at 37° C. to solubilize the formazane crystals, optical density was determined at 570-650 nm in microplate reader. […]

[3] = Cytotoxicity by MTT assay, reported with the MLR assay (Table II); settings: pbmc and thymocytes, cytotoxic when toxicity greater than 25%
Experimental: as §1, §2

Compound: CC(C)[C@]12O[C@H]1[C@@H]1O[C@]13[C@]1(O[C@H]1C[C@H]1C4=C(CC[C@@]13C)C(=O)OC4)[C@@H]2O [Triptolide, triptolide]
- IC50 ([1]; read-out: IC50 (concentration of sample producing 50% suppression of proliferation), MLR assay): 0.9 ng/mL
- IC50 ([1]; read-out: IC50, MLR assay): 2.5 nM
- MCC [2]: > 12.5 µg/mL
- MCC [3]: 0.0133 µg/mL

— patent US5663335A, “Immunosuppressive compounds and methods” (priority 1996, dated 1997)
